Data published in paper PMC6600292, “Potent Anti-Ovarian Cancer with Inhibitor Activities on Both Topoisomerase II and ^V600EBRAF of Synthesized Substituted Estrone Candidates” (Molecules, 2019).
Like-named read-outs stand apart in the source and are kept apart here.

Experiments:
[1] = in vitro; type: cell-based
Protocol: (§1) The cytotoxic activities of the synthesized derivatives against ovarian cancer cell lines (SKOV-3) were evaluated using standard MTT assay. SKOV-3 cells cultivated on DMEM medium supplemented with 10% FBS, […], 1% antibiotic/antimycotic solution and 3.6 g/L NaHCO3 were used. Cells were incubated under standard laboratory conditions. Before testing compounds, cells were trypsinized, centrifuged and prepared as per our developed protocol. MTT assay relies on the enzymatic conversion of the MTT substrate into purple formazan by living cells mitochondrial enzymes. Shortly, 96 well plates were seeded (10,000 cells/100 µL/well), then incubated for 24 h at standard conditions. Afterwards, cells were exposed to different concentrations from prepared compounds and incubated for another 24 h. Thereafter, MTT (10 µL, 5 mg/mL, PBS) were added to each well, and plates were incubated for 4 h. Supernatants were then replaced discarded with 200 µL of DMSO to dissolve the precipitated formazan crystals. Formazan absorbance, proportional to living cell number, was read at 550 nm using a microplate reader. Viability percentages were calculated and the corresponding IC50 values were obtained from the linear regression of the calibration curve. For comparison, doxorubicin (DOX) and resveratrol (RES) were used as positive controls. Furthermore, the effect of the newly synthesized derivatives was tested against normal fibroblast cell line to assess their toxicities.

[2] = system: SKOV-3 cells; assay: MTT cytotoxicity assay against SKOV-3 ovarian cancer cells; type: cell-based; details: Homo sapiens, read-out: IC50, cytotoxicity against SKOV-3
Protocol: as §1

[3] = molecular target: topoisomerase II; assay: Topoisomerase II relaxation assay; type: biochemical; details: topoisomerase II purified from P388 cells, relaxation of pBR-322 DNA; read-out: IC50, topoisomerase II inhibition
Protocol: The inhibitory effects of the synthesized compounds against topoisomerase II were investigated using relaxation assay according to Goyeneche, et al.. Topoisomerase II was purified from P388 cells, where enzyme unit corresponds to the activity required complete relaxation of […] of supercoiled pBR-322 DNA at 30 °C for 1 h. The assay was performed as per protocol and samples were subjected to electrophoresis (0.7% agarose gels, TBE buffer. Ethidium bromide-stained DNA was examined under UV light.

[4] = molecular target: T1, V600EBRAF (mutant BRAF kinase) (Homo sapiens, UniProt P15056, V600E); assay: In vitro ELISA-based kinase assay, V600EBRAF; type: biochemical; details: GST-MEK-His substrate
T1 construct: BRAF wild-type and V600E mutant kinase domains were expressed and purified; made in house; host or cells: Sf9 insect cells, baculovirus
T1 sequence (P15056 457-717 V600E limits assumed): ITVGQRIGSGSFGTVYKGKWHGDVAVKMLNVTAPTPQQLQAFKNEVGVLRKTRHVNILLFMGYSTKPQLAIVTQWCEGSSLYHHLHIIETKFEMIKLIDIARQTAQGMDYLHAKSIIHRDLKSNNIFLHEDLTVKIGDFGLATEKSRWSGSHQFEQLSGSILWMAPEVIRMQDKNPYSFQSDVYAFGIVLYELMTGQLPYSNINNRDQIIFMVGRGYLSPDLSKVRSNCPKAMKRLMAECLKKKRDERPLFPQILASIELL
Protocol: BRAF wild-type and V600E mutant kinase domains were expressed and purified according to Nakamura et al. [34]. Shortly, Sf 9 cells infected with BRAF kinase domain containing baculovirus were resuspended, sonicated, and then cleared using ultracentrifugation. Afterwards, the cleared lysate with mixed with equilibrated Talon resin, and the resin then washed with 10 column volumes of wash buffer and then eluted with buffer (25 mM Tris, pH 7.0, 250 mM NaCl, 160 mM imidazole, 10% glycerol). The eluant was then diluted, concentrated using Superdex 200 gel filtration column, purified as previously described and finally stored at –80 °C until use.
The previously prepared GST MEK-His protein was diluted in TTBS buffer (100 μL, 50 μg/mL), and then bound to 96-plate wells coated with glutathione (Pierce Biotechnology). Two DMSO-dilutions of each compound (1 µL) were added to 50 μL (50mM HEPES, pH7.0, 0.7 pmol of BRAF^V600E kinase). Tubes were incubated at ambient temperature for 1 h, then added to GST-MEK-His-plate wells. Afterwards, 50 μL of phosphorylation buffer were added to start kinase reaction (37 °C/30 min/shaking). Reaction was stopped, then substrate was added, and the signal was recorded. […]

[5] = SK-OV-3, SKOV-3 cells, MTT, 24 h exposure

| SMILES | IC50 at 24 h [1] | melting point | IC50 [2, 5] | IC50 [3] | IC50 [4] | IC50 ([2]; SK-OV-3, 24 h) |
| --- | --- | --- | --- | --- | --- | --- |
| COCC1CC2C3CCc4cc(O)ccc4C3CCC2(C)C1NNc1ccccc1 (stereo not drawn) [Compound 3i, 16-(α-Methoxy-methane)-17-[N-phenyl-hydrazino]-estra-1(10),2,4-trien-[17,16-c]-3-ol] | 15.1 µM | 312 to 314 °C |  |  |  |  |
| CC12CCC3c4ccc(O)cc4CCC3C1CC1CN(c3ccccc3)N=C12 (centres unmarked) [Compound 4c, 1`-Phenyl-1`H-estra-1(10),2,4-trien-[17,16-c]pyrazoline-3-ol] | 25.6 µM | 255 to 257 °C |  |  |  |  |
| COC(C)C1CC2C3CCc4cc(O)ccc4C3CCC2(C)C1NNc1ccccc1 (stereo not drawn) [Compound 3j, 16-(α-Methoxy-ethane)-17-[N-phenyl-hydrazino]-estra-1(10),2,4-trien-[17,16-c]-3-ol] | 16.2 µM | 229 to 231 °C |  |  |  |  |
| COC(C)C1CC2C3CCc4cc(O)ccc4C3CCC2(C)C1NN (stereo not drawn) [Compound 3b, 16-(α-Methoxy-ethane)-17-hydrazino-estra-1(10),2,4-trien[17,16-c]-3-ol] | 2.45 µM | 308 to 310 °C |  |  |  |  |
| CCOCC1CC2C3CCc4cc(O)ccc4C3CCC2(C)C1NNC (stereo not drawn) [Compound 3g, 16-(α-Ethoxy-methane)-17-[N-methyl-hydrazino]-estra-1(10),2,4-trien-[17,16-c]-3-ol] | 11.2 µM | 286 to 288 °C |  |  |  |  |
| CCOCC1CC2C3CCc4cc(O)ccc4C3CCC2(C)C1NN (stereo not drawn) [Compound 3c, 16-(α-Ethoxy-methane)-17-hydrazino-estra-1(10),2,4-trien-[17,16-c]-3-ol] | 5.67 µM | 219 to 221 °C |  |  |  |  |
| CNNC1C(COC)CC2C3CCc4cc(O)ccc4C3CCC21C (centres unmarked) [Compound 3e] | 8.11 µM | 222 to 224 °C |  |  |  |  |
| COc1cccc2c1C(=O)c1c(O)c3c(c(O)c1C2=O)C[C@@](O)(C(=O)CO)C[C@@H]3O[C@H]1C[C@H](N)[C@H](O)[C@H](C)O1 [doxorubicin] |  |  | 0.25 µM |  |  |  |
| CN1CC2CC3C4CCc5cc(O)ccc5C4CCC3(C)C2=N1 (centres unmarked) [Compound 4a, 1`-Methyl-1`H-estra-1(10),2,4-trien-[17,16-c]pyrazoline-3-ol] | 23.3 µM | 117 to 119 °C |  |  |  |  |
| CCOC(C)C1CC2C3CCc4cc(O)ccc4C3CCC2(C)C1NNc1ccccc1 (stereo not drawn) [Compound 3l, 16-(α-Ethoxy-ethane)-17-[N-phenyl-hydrazino]-estra-1(10),2,4-trien-[17,16-c]-3-ol] | 20.2 µM | 288 to 300 °C |  |  |  |  |
| CCOC(C)C1CC2C3CCc4cc(O)ccc4C3CCC2(C)C1NNC (stereo not drawn) [Compound 3h, 16-(α-Ethoxy-ethane)-17-[N-methyl-hydrazino]-estra-1(10),2,4-trien-[17,16-c]-3-ol] | 16.2 µM | 280 to 282 °C |  |  |  |  |
| CC1C2CC3C4CCc5cc(O)ccc5C4CCC3(C)C2=NN1C (centres unmarked) [Compound 4b, 1`-Methyl-1`H-5`-methyl-estra-1(10),2,4-trien-[17,16-c]pyrazoline-3-ol] | 24.6 µM | 216 to 218 °C |  |  |  |  |
| Oc1ccc(/C=C/c2cc(O)cc(O)c2)cc1 [resveratrol] |  |  | 0.055 µM |  |  |  |
| CCOCC1CC2C3CCc4cc(O)ccc4C3CCC2(C)C1NNc1ccccc1 (stereo not drawn) [Compound 3k, 16-(α-Ethoxy-methane)-17-[N-phenyl-hydrazino]-estra-1(10),2,4-trien-[17,16-c]-3-ol] | 17.8 µM | 338 to 340 °C |  |  |  |  |
| CNNC1C(C(C)OC)CC2C3CCc4cc(O)ccc4C3CCC21C (stereo not drawn) [Compound 3f, 16-(α-Methoxy-ethane)-17-[N-methyl-hydrazino]-estra-1(10),2,4-trien-[17,16-c]-3-ol] | 9.2 µM | 310 to 312 °C |  |  |  |  |
| COCC1CC2C3CCc4cc(O)ccc4C3CCC2(C)C1NN (stereo not drawn) [Compound 3a, 16-(α-Methoxy-methane)-17-hydrazino-estra-1(10),2,4-trien-[17,16-c]-3-ol] | 1.2 µM | 199 to 201 °C |  | 0.00345 ± 0.00013 µM | 0.041 ± 0.0016 µM | 0.00423 ± 0.00012 µM |
| CCOC(C)C1CC2C3CCc4cc(O)ccc4C3CCC2(C)C1NN (stereo not drawn) [Compound 3d, 16-(α-Ethoxy-ethane)-17-hydrazino-estra-1(10),2,4-trien-[17,16-c]-3-ol] | 7.44 µM | 223 to 225 °C |  |  |  |  |
| CC1C2CC3C4CCc5cc(O)ccc5C4CCC3(C)C2=NN1c1ccccc1 (centres unmarked) [Compound 4d, 1`-Phenyl-1`H-5`-methyl-estra-1(10),2,4-trien-[17,16-c]pyrazoline-3-ol] | 30.3 µM | 214 to 216 °C |  | 0.0436 ± 0.00098 µM |  |  |
